Laboratory results as given in PubChem BioAssay (NCI).
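96-well plates; 48 h exposure; 5 concentrations. Endpoints by linear interpolation between flanking doses. Not reached: highest tested concentration assigned. The concentration for full growth arrest is given as TGI.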

What was measured:
Experiment in all cases: inhibition of tumour cell growth, NCI panel, 48 h
[1] = test system: NCI-H23 lung
[2] = test system: RPMI-8226 leukemia
[3] = test system: MDA-MB-231 breast
[4] = test system: NCI/ADR-RES ovarian
[5] = test system: RXF 393 renal
[6] = test system: SR leukemia
[7] = test system: ACHN renal
[8] = test system: HCT-116 colon
[9] = test system: HL-60(TB) leukemia
[10] = test system: SK-MEL-2 melanoma
[11] = test system: KM12 colon
[12] = test system: OVCAR-4 ovarian
[13] = test system: SK-MEL-28 melanoma
[14] = test system: HT29 colon

Row | SMILES | TGI [1] [µM] | TGI [2] [µM] | TGI [3] [µM] | TGI [4] [µM] | TGI [5] [µM] | TGI [6] [µM] | TGI [7] [µM] | TGI [8] [µM] | TGI [9] [µM] | TGI [10] [µM] | TGI [11] [µM] | TGI [12] [µM] | TGI [13] [µM] | TGI [14] [µM]
1 | O=[N+]([O-])/C(Cl)=C(\Nc1ccccc1)C(Cl)=C(Cl)Cl | > 100 | 78.9 | 79.6 | 38.5 | > 100 | 69.9 | > 100 | > 100 | 40.1 | 91.6 | 32 | > 100 | > 100 | 69.9
2 | Cc1ccc(S(=O)(=O)[N-]C2C(=O)c3ccccc3C(=O)C2[n+]2cccc(C(N)=O)c2)cc1 (stereo not given) | > 100 | > 100 | > 100 | > 100 | > 100 | > 100 | > 100 | 36 | > 100 | > 100 | > 100 | > 100 | > 100 | > 100
3 | COc1ccc(OC)c(NC(=O)C(=O)Nn2c(=S)[nH]c3ccccc3c2=O)c1 | > 100 | > 100 | > 100 | > 100 | > 100 | > 100 | > 100 | > 100 | > 100 | > 100 | > 100 | > 100 | > 100 | > 100
4 | Cn1c2ccccc2c(=O)c2c(O)cc3c(c21)C=CC1(CCCC1)O3 | > 100 | > 100 | > 100 | > 100 | > 100 | > 100 | > 100 | > 100 | > 100 | > 100 | > 100 | > 100 | > 100 | > 100
5 | C[C@@H]1C[C@@H](O)[C@@]2(O)C13CC(=O)OC(C3)[C@@H](C)[C@@]2(C)CO (stereo not given in full) | > 100 | > 100 | > 100 | > 100 | > 100 | > 100 | > 100 | > 100 | > 100 | > 100 | > 100 | > 100 | > 100 | > 100
6 | O=c1oc2ccccc2cc1-c1nnc(-c2ccccc2)s1 | > 100 | > 100 | 46.3 | > 67.2 | > 54.6 | > 36.8 | > 100 | > 100 | 3.5 | > 100 | 36.2 | > 100 | > 100 | > 100
7 | COc1ccc2nc3cc([N+](=O)[O-])ccc3c(NNc3ccc(Cl)cc3)c2c1 | > 100 | 78.7 | > 73.1 | > 100 | > 83.4 | 37.7 | > 82.2 | > 55.7 | > 73.8 | 59.4 | > 100 | > 100 | > 100 | 43.5
8 | Nc1nc(Cl)cc(NCC2(CO)CCC2)n1 | > 100 | > 100 | > 100 | > 100 | > 100 | > 100 | > 100 | > 100 | > 100 | > 100 | > 100 | > 100 | > 100 | > 100
9 | CCC(CC)C(=O)OC[n+]1cccc(-c2c(COC(=O)NC(C)C)c(COC(=O)NC(C)C)c3n2CCC3)c1 | > 100 | > 100 | > 100 | > 100 | > 100 | > 100 | > 100 | > 100 | > 100 | > 100 | > 100 | > 100 | > 100 | > 100
10 | Cn1cc2c(=O)n3ncn(-c4ccc(Br)cc4)c3nc2n1 | > 100 | > 100 | > 100 | > 100 | > 100 | > 100 | > 100 | > 100 | > 100 | > 100 | > 100 | > 100 | > 100 | > 100
